Source: ChEMBL document CHEMBL1137844, “Design, synthesis and structure-activity relationship of novel RXR-selective modulators” (Bioorg Med Chem Lett, 2004)

Legend:
[1] = molecular target: T1, Retinoic acid receptor RXR-alpha (Homo sapiens, UniProt P19793); test: Binding affinity against Retinoic acid receptor RXR-alpha by [3H]9-cis-RA displacement.
T1 sequence (P19793 whole entry): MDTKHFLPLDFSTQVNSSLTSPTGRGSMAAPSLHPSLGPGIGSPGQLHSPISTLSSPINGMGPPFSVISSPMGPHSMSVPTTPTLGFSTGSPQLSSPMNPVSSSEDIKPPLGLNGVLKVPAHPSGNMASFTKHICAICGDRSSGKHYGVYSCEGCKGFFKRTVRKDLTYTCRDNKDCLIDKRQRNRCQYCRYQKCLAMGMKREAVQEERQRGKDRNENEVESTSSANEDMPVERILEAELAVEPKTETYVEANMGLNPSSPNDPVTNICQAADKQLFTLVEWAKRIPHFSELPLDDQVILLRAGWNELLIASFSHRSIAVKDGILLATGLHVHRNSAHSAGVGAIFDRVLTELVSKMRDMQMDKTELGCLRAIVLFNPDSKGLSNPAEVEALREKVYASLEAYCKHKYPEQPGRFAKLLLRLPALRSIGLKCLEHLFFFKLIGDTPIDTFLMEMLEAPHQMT

[2] = molecular target: T2, Retinoic acid receptor RXR-beta (Homo sapiens, UniProt P28702); test: Displacement of [3H]9-cis-RA from Retinoic X receptor beta
T2 sequence (P28702 whole entry): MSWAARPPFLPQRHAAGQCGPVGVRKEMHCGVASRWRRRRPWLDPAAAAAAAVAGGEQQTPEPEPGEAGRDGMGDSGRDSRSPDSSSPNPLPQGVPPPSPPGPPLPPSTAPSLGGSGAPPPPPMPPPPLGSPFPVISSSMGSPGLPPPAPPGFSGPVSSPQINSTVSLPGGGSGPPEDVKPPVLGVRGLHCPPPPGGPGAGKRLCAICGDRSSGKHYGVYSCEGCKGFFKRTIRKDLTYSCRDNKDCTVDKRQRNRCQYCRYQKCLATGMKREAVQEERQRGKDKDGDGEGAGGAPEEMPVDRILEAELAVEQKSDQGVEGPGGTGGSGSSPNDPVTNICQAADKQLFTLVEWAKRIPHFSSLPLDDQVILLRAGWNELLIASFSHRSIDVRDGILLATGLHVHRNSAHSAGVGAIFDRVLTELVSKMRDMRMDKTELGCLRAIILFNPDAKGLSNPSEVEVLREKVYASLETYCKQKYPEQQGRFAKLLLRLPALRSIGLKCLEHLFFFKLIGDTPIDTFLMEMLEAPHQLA

[3] = molecular target: T3, Retinoic acid receptor RXR-gamma (Homo sapiens, UniProt P48443); test: Displacement of [3H]9-cis-RA from retinoic X receptor gamma
T3 sequence (P48443 whole entry): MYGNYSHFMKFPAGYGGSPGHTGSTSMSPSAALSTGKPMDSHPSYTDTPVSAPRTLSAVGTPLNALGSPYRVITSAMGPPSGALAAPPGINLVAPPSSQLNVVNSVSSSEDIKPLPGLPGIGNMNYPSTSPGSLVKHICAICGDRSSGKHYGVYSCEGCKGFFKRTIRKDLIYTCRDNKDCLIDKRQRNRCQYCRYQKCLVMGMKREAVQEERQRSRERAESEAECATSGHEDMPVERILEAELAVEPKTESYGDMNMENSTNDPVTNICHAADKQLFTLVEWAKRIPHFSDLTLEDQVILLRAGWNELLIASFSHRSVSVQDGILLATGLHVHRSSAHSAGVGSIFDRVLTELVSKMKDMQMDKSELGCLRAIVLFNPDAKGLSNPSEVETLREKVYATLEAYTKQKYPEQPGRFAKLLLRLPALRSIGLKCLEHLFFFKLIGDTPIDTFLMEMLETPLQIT

[4] = molecular target: T1, Retinoic acid receptor RXR-alpha; test: Antagonist activity for Retinoic X receptor alpha in CV1 cells; format: functional, cell-based, CV-1
[5] = molecular target: T4, Retinoic acid receptor alpha (Homo sapiens, UniProt P10276); test: Binding affinity against retinoic acid receptor alpha by [3H]ATRA displacement.
T4 sequence (P10276 whole entry): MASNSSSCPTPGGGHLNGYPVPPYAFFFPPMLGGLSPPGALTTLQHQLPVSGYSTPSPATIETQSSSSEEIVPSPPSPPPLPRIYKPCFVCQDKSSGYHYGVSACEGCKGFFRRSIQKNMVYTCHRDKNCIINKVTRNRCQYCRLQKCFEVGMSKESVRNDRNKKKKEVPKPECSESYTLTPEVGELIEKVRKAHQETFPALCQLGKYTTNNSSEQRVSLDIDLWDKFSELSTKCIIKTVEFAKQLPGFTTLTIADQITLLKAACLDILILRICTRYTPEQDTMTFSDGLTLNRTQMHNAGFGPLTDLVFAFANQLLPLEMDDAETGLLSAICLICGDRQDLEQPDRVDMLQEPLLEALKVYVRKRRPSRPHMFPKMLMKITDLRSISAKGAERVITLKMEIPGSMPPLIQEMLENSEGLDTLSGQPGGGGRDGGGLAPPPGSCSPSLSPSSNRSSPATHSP

[6] = molecular target: T1, Retinoic acid receptor RXR-alpha; test: Transcriptional activation in CV-1 cells expressing Retinoid X receptor alpha; format: cell-based

Row | Compound | Ki [1] | Ki [2] | Ki [3] | IC50 [4] | Ki [5] | EC50 [6]
1 | C/C(=C\C(=O)O)c1cc2cccc(-c3cc(C(C)C)cc(C(C)C)c3OCC(F)F)c2o1 | 161 nM | 261 nM | 500 nM | 300 nM | > 10 µM | 
2 | Cc1cc2c(cc1C1(c3ccc(C(=O)O)cn3)CC1)C(C)(C)CCC2(C)C |  | 7.5 nM |  |  |  | 
3 | CCOc1c(-c2cccc3cc(/C(C)=C/C(=O)O)oc23)cc(C(C)C)cc1C(C)C |  |  |  |  | > 10 µM | 74 nM
4 | CCCCOc1c(-c2cccc3cc(/C(C)=C(\F)C(=O)O)oc23)cc(C(C)C)cc1C(C)C | 16 nM | 64.5 nM | 28 nM | 11 nM | > 10 µM | 
5 | C/C(=C\C(=O)O)c1cc2cccc(-c3cc(C(C)C)cc(C(C)C)c3OCCCF)c2o1 | 47 nM |  |  | 194 nM | > 10 µM | 
6 | C/C(=C\C(=O)O)c1cc2c(-c3cc(C(C)(C)C)cc(C(C)(C)C)c3OCC(F)F)cccc2s1 |  | 55 nM | 20 nM | 24 nM | 8.36 µM | 
7 | CCCCCCCOc1c(-c2cccc3sc(/C(C)=C/C(=O)O)cc23)cc(C(C)(C)C)cc1C(C)(C)C | 5 nM | 12 nM | 28 nM | 83 nM | > 10 µM | 
8 | C/C(=C\C(=O)O)c1cc2cccc(-c3cc(C(C)C)cc(C(C)C)c3OCC(F)(F)F)c2o1 | 198 nM | 142 nM | 334 nM | 347 nM |  | 
9 | C/C(=C\C(=O)O)c1cc2c(-c3cc(C(C)(C)C)cc(C(C)(C)C)c3OCCCF)cccc2s1 | 3 nM | 10 nM | 21 nM | 8 nM | 7.28 µM | 
10 | C/C(=C\C(=O)O)c1cc2c(-c3cc(C(C)(C)C)cc(C(C)(C)C)c3OCC(F)(F)F)cccc2s1 | 3 nM | 10 nM | 20 nM | 14 nM | > 10 µM | 
11 | C/C(=C(/F)C(=O)O)c1cc2cccc(-c3cc(C(C)C)cc(C(C)C)c3OCC(F)F)c2o1 | 101 nM | 4 nM | 49 nM | 22 nM | > 10 µM | 
12 | CCCOc1c(-c2cccc3cc(/C(C)=C/C(=O)O)oc23)cc(C(C)C)cc1C(C)C | 44 nM |  |  | 128 nM | 8.5 µM | 
13 | CCCOc1c(-c2cccc3sc(/C(C)=C/C(=O)O)cc23)cc(C(C)C)cc1C(C)C |  | 15 nM | 20 nM | 16 nM | 6.91 µM | 
14 | CCOc1c(-c2cccc3cc(/C(C)=C/C(=O)O)sc23)cc(C(C)C)cc1C(C)C | 271 nM |  |  |  | 6.02 µM | 390 nM
15 | CCOc1c(-c2cccc3sc(/C(C)=C/C(=O)O)cc23)cc(C(C)C)cc1C(C)C | 6 nM | 11 nM | 12 nM |  | > 10 µM | 20 nM
16 | C/C(=C/C=C/C(C)=C/C(=O)O)c1cc(C(C)(C)C)cc(C(C)(C)C)c1OCC(F)F |  | 18 nM | 39 nM |  | > 1 µM | 
17 | C/C(=C\C(=O)O)c1cc2c(-c3cc(C(C)(C)C)cc(C(C)(C)C)c3OCCC(F)F)cccc2s1 | 7 nM | 12 nM | 37 nM | 16 nM | > 10 µM | 
18 | C/C(=C\C(=O)O)c1cc2c(-c3cc(C(C)(C)C)cc(C(C)(C)C)c3C)cccc2s1 | 7 nM | 33 nM | 54 nM |  | 1.79 µM | 39 nM
